Data set [1] concerns Bovan Goldline hens. Kind of data set: Carotenoid contents of egg yolks from hens fed mixed carotenoids (HPLC). As to the method:
Eight Bovan Goldline hens were obtained at approximately 18 weeks of age.
When the hens were producing at least 8 eggs per day in total, the hens were isolated and fed only a commercial meal. […] The premix provided 250 mg MZ/kg feed with proportions of L 50, MZ 30, Z 20.
The yolk carotenoids were measured in mixtures prepared from all eggs collected at baseline, three and six weeks.
Yolks were individually weighed and mixed with phosphate-buffered saline and made up to 50 ml. Two ml of each suspension was mixed in a separate universal tube for each of the three batches separately and stored at −40 C.
The egg yolk suspension (0.1 ml) was mixed with 0.15 ml aqueous KOH (25 gl100 mlwater), 0.15 ml absolute ethyl alcohol and 0.1 ml echinenone (internal standard, 0.4 mg/500 ml ethyl alcohol) in a glass extraction tube and incubated at 45 C for 45 minutes.
Solutions were then cooled and mixed vigorously with 1.5 ml hexane (containing BHT500 mg/l) and centrifuged to separate the hexane and aqueous layers. One ml of the upper hexane layer was transferred to an evaporating tube and the residue was re-extracted with 1.5 ml hexane. After centrifuging, 1.5 ml of the upper layer was removed and the extracts combined and evaporated to dryness under nitrogen at 40 C. The residue was made up to 0.15 ml with mobile phase (see Ultracarb HPLC below) and 0.1 ml was injected onto a Ultra Carb Column for HLPC analysis.
Separation and quantitation of the MZ was achieved using a two column procedure.
Ultracarb procedure: Extracts prepared as described above were reconstituted in a mobile phase comprising acetonitrile:methanol (85:15 containing 0.1% triethylamine). Using the same solvent mixture at 1.5 ml/min, extracts were chromatographed isocratically using a 3 micro m Ultracarb ODS column (250×4.6 mm, Phenomenex, UK) and detected using a photodiode-array detector (model 2996, Waters Ltd) to quantify L and Z+MZ at 450 nm. Eluent that coincided with the emergence of MZ+Z was collected from the waste line and evaporated to dryness under nitrogen.
Chiral chromoatography: The Z+MZ extract was then reconstituted in 0.1 ml of hexane:isopropanol (90:10) and 50 uL was chromatographed on a 10 micro m Chiralpak® AD column (250×4.6 mm; Chiral Technologies Europe, 67404 Illkirch Cedex, France) to determine the proportion of MZ and Z isomers using gradient elution at 0.8 ml/min starting with 90% hexane and 10% isopropyl alcohol and increasing to 95% hexane in a linear gradient over 30 minutes.

Data set [2] is described as follows: Plasma carotenoids in one person consuming one egg per day (HPLC). As to conditions: human, in vivo. As to the method: The objective of this study was to feed hens a mixture of L, MZ and Z to determine the total amount of MZ in the yolk. In addition 24 eggs collected at the end of the experiment were consumed by one subject, one egg/day and the blood MZ composition determined.
Blood (10 ml) from a human subject was collected in lithium heparin tubes at baseline, day 12 and day 24 after consumption of one egg per day and centrifuged to provide plasma subsequently stored at −40 C. Plasma, 0.25 ml was mixed with 0.2 ml sodium dodecyl sulphate, 0.4 ml ethyl acetate (internal standard). Hexane containing BHT (1.0 ml) was added and the mixture extracted vigorously for 4 minutes, centrifuged for 10 mins and 0.7 ml of the upper hexane layer removed and evaporated to dryness.
The residue was made up to 0.1 ml with mobile phase (see HPLC procedure below) and 0.05 ml was injected onto the column.

Where [3] appears, read: feeding 250 ppm of the carotenoid mixture for 3 weeks.

Each structure is given as a SMILES string.

The values that follow come from patent US9603813B2, “Visual performance and/or macular pigmentation” (Howard Foundation Holdings Limited, priority 2011, dated 2017).

As to `CC1=C[C@H](O)CC(C)(C)[C@H]1/C=C/C(C)=C/C=C/C(C)=C/C=C/C=C(C)/C=C/C=C(C)/C=C/C1=C(C)C[C@@H](O)CC1(C)C` [L, lutein], the “contents of egg yolks from chicken fed 250 mg/kg mixed carotenoids” value (“contents of egg yolks” below) is recorded as 563 micro grams per yolk in data set [1] (Weeks 0 (baseline)), 2100 micro grams per yolk in data set [1] (Weeks 3) and 2260 micro grams per yolk in data set [1] (Weeks 6). In addition, in data set [1] (setting [3]), the “share of the yolk carotenoid content” value is recorded as “circa 76%”. Also, the concentration at 12 day in data set [2] turned out to be 1200 nM. The compound also had a concentration at 24 day in data set [2] of 1060 nM. The “contents of plasma in one person consuming one egg per day” value in data set [2] is given as 0.55 micro moles per litre.
As for `CC1=C(/C=C/C(C)=C/C=C/C(C)=C/C=C/C=C(C)/C=C/C=C(C)/C=C/C2=C(C)C[C@H](O)CC2(C)C)C(C)(C)C[C@H](O)C1` [MZ, (trans, 3R, 3′S meso)-zeaxanthin], the entries for the “contents of egg yolks” value in data set [1] (Weeks 0 (baseline)), in data set [1] (Weeks 3) and in data set [1] (Weeks 6) were 0 micro grams per yolk, 315 micro grams per yolk and 272 micro grams per yolk, respectively. Further, the “content of egg yolks” value in data set [1] (setting [3]) was 2.78 mg MZ/yolk. In data set [1] (setting [3]), the “share of the yolk carotenoid content” value is given as 11%.
As to `CC1=C(/C=C/C(C)=C/C=C/C(C)=C/C=C/C=C(C)/C=C/C=C(C)/C=C/C2=C(C)C[C@@H](O)CC2(C)C)C(C)(C)C[C@H](O)C1` [Z, zeaxanthin], the “contents of egg yolks” value in data set [1] (Weeks 0 (baseline)) came to 278 micro grams per yolk; in data set [1] (Weeks 3), 366 micro grams per yolk; in data set [1] (Weeks 6), 328 micro grams per yolk. For the same compound, the “share of the yolk carotenoid content” value in data set [1] (setting [3]) amounted to 13%.
